Each block holds one molecule with its values, some of them ahead of it.
Tests used:
[1] = system: SD rats maintained on a high fat diet (HFD); test: Liver histopathology (NAFLD activity score) in HFD model; format: in vivo, Sprague Dawley (SD) rats
Description: (§1) The parameters were assessed following a chronic oral treatment with compound I at 10 and 30 mg/kg, dapagliflozin at 5 mg/kg, or vehicle to animals receiving HFD. Vehicle was also administered to animals receiving normal chow. The liver triglycerides were quantified using Cobas C111 clinical analyzer TRIGL 04657594 190. Glycogen quantification in liver samples was performed using commercial kits (Thermo BioVision, Glycogen Assay Kit, K646-100). Data is shown as means±SEM (A-D) or raw data including mean±SEM (E-H), n=9-10. The statistical analysis of liver triglycerides (A-B) and glycogen (C-D) was performed by general linear model of log transformed data (triglycerides only) with treatment and cohort as factors and termination order and BW on day 1 as covariates. Treatment groups were compared with HFD Vehicle by separate Williams' tests (compound I) or multiple t tests (dapagliflozin) and statistically significant differences are denoted by * (p<0.05), ** (p<0.01) and *** (p<0.001). Comparisons against Chow Vehicle were performed by multiple t tests (HFD Vehicle and dapagliflozin groups) or Dunnett's test (compound I) and statistically significant differences are denoted by † (p<0.05), †† (p<0.01) and ††† (p<0.001). Analysis of liver histopathology data (E-H) was done by exact Wilcoxon rank sum test. Statistical differences are denoted by * (p<0.05) in comparison with HFD Vehicle and by † (p<0.05), †† (p<0.01) and ††† (p<0.001) when compared with Chow Vehicle.
(§2) In the HFD model, animals were initially maintained on a HFD for 4 weeks to induce a significant body weight (BW) gain before treatment was initiated. […] Two vehicle-treated control groups, fed either normal chow (Chow Vehicle) or HFD (HFD Vehicle), were also included.
Liver was also assessed for NAFLD by histopathological analysis (FIGS. 3E-H). Samples were sectioned, stained and scored following a method previously described (Kleiner D E et al. (2005). Design and validation of a histological scoring system for nonalcoholic fatty liver disease. Hepatology. 41(6):1313-21; Nishida T et al. (2013). Spontaneous onset of nonalcoholic steatohepatitis and hepatocellular carcinoma in a mouse model of metabolic syndrome. Lab Invest. 93(2):230-41). The parameters analyzed were: steatosis (0-3), lobular inflammation (0-3) and hepatocellular ballooning (0-2). The total “NAFLD activity score” (NAS) score was calculated as the sum of all parameters (0-8). The liver of Chow Vehicle animals had no pathology scores (zero) for steatosis, lobular inflammation, hepatocellular ballooning and no score for total NAS.

[2] = system: SD rats maintained on a high fat diet (HFD); test: Plasma glucose, insulin and HOMA-IR in HFD model; format: in vivo, Sprague Dawley (SD) rats
Description: as §2, with “Vehicle was administered to animals fed normal chow or HFD. The parameters were assessed on day 51. […] In” for “In”

[3] = system: SD rats maintained on a high fat diet (HFD); test: Weight of selected tissues in HFD model; format: in vivo, Sprague Dawley (SD) rats
Description: In the HFD model, animals were initially maintained on a HFD for 4 weeks to induce a significant body weight (BW) gain before treatment was initiated. […] Two vehicle-treated control groups, fed either normal chow (Chow Vehicle) or HFD (HFD Vehicle), were also included. The effects on body composition and on the weight of selected tissues (brown fat pad, epididymal fat pad, liver or gastrocnemius muscle) were assessed after the study was terminated (days 65/66). […] Body composition was determined using FoodScan™ near-infrared analyzer analysis, which assessed water, protein and fat content and the final carcass weight (Table 4).

[4] = system: SD rats maintained on a high fat diet (HFD); test: Liver triglycerides and glycogen in HFD model; format: in vivo, Sprague Dawley (SD) rats; settings: 5 mg/kg
Description: as §1, with “Comparisons against Chow Vehicle were performed by multiple t tests (HFD Vehicle and dapagliflozin groups) or Dunnett's test (compound I) and statistically significant differences are denoted by † (p<0.05), †† (p<0.01) and ††† (p<0.001). Analysis of liver histopathology data (E-H) was done by exact Wilcoxon rank sum test. Statistical differences are denoted by * (p<0.05) in comparison with HFD Vehicle and by † (p<0.05), †† (p<0.01) and ††† (p<0.001) when compared with Chow Vehicle.” left out
As only the benzimidazole derivative of formula I according to the present invention, but not the comparative benzimidazole compound II, impacted BW gain, liver weight, plasma glucose levels and HOMA-IR in the HFD model, specific effects of compound I in the liver of the animals were evaluated in comparison with dapagliflozin and control groups. […]

[5] = system: SD rats maintained on a high fat diet (HFD); test: Body composition (FoodScan near-infrared analyzer) in HFD model; format: in vivo, Sprague Dawley (SD) rats; settings: for Fat / Final carcass weight / Protein / Water: adjusted means ± SEM; for Body composition parameters (water, protein, fat content, final carcass weight) against HFD Vehicle: 10 and 30 mg/kg
Description: as §2
The effects on body composition and on the weight of selected tissues (brown fat pad, epididymal fat pad, liver or gastrocnemius muscle) were assessed after the study was terminated (days 65/66). The weights of tissues were analyzed in two ways: i) BW on day 1 was used as a covariate to correct for differences in the BW at the start of the study or ii) the terminal BW (days 65/66) was used as a covariate to correct for changes due to weight loss (Table 3). […] Body composition was determined using FoodScan™ near-infrared analyzer analysis, which assessed water, protein and fat content and the final carcass weight (Table 4).

[6] = system: SD rats maintained on a high fat diet (HFD); test: Body weight and food intake in HFD diet-induced obesity model; format: in vivo, Sprague Dawley (SD) rats; settings: for Daily food intake compared with HFD Vehicle: compound II apart from isolated changes
Description: The benzimidazole compound of formula I, the comparative compound of formula II, and dapagliflozin were administered to animals fed HFD. Vehicle was administered to animals fed normal chow or HFD. Data is shown as adjusted means—SEM of n=9-10 animals (BW and BW gain) or n=5 cages (FI and average daily FI) per group. Data was analyzed by ANCOVA with BW on day 1 (A and C) or average FI during the baseline period (B and D) as covariate, excluding the Chow Vehicle group. Treatment groups were compared with HFD Vehicle by separate Williams' tests (compounds I or II) or multiple t tests (dapagliflozin) and considered statistically significant if p<0.05. Statistical significance is denoted as “a”, “b”, “c”, “d” and “e” for HFD groups treated respectively with dapagliflozin, compound II at 10 mg/kg, compound II at 30 mg/kg, compound I at 10 mg/kg and compound I at 30 mg/kg. # (p=0.051) and & (p=0.098) mean trends toward significance in comparisons with HFD Vehicle.
J Endocrinol. 234(3):255-267; Devenny J J et al. (2012). Weight loss induced by chronic dapagliflozin treatment is attenuated by compensatory hyperphagia in diet-induced obese (DIO) rats. Obesity. 20: 1645-1652.).
as §2

MT1 receptor = MT1 receptor (Homo sapiens, UniProt P48039); test: cell-based; settings: read-out: MT1 agonism I.A. (intrinsic activity)
Sequence of MT1 receptor (P48039 whole entry): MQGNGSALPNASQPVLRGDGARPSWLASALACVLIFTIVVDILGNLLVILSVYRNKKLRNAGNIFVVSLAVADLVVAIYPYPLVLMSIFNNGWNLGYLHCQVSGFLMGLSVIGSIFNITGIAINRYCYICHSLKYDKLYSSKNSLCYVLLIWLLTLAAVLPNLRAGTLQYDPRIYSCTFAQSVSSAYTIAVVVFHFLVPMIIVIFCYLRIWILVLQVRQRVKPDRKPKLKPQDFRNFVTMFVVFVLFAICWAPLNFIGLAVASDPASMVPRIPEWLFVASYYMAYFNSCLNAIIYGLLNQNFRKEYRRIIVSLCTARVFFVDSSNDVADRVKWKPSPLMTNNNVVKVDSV

[7] = 5 mg/kg p.o., day 51 after 4-hour fast, p<0.001
[8] = 5 mg/kg, data adjusted for BW on day 1, mean ± SEM, in g (unit assumed)
[9] = 5 mg/kg, data adjusted for BW on day 65/66, mean ± SEM, in g (unit assumed)
[10] = 10 mg/kg, data adjusted for BW on day 1, mean ± SEM, in g (unit assumed)
[11] = 10 mg/kg, data adjusted for BW on day 65/66, mean ± SEM, in g (unit assumed)
[12] = 30 mg/kg, data adjusted for BW on day 1, mean ± SEM, in g (unit assumed)
[13] = 30 mg/kg, data adjusted for BW on day 65/66, mean ± SEM, in g (unit assumed)

Structure (SMILES): CCOc1ccc(Cc2cc([C@@H]3O[C@H](CO)[C@@H](O)[C@H](O)[C@H]3O)ccc2Cl)cc1 [Dapagliflozin]
- Histopathology parameters (steatosis, lobular inflammation, hepatocellular ballooning, NAS) versus HFD Vehicle ([1]; 5 mg/kg): no effect
- HOMA-IR change compared to HFD Vehicle [2, 7]: −66.7%
- Plasma glucose change compared to HFD Vehicle [2, 7]: −21.6%
- Plasma insulin change compared to HFD Vehicle [2, 7]: −56.7%
- Brown adipose tissue weight [3, 8]: 0.679 ± 0.047
- Epididymal fat pads weight [3, 8]: 12.2 ± 0.7
- Gastrocnemius weight [3, 8]: 3.34 ± 0.09
- Liver weight [3, 8]: 20.9 ± 0.5
- Liver weight ([3]; 5 mg/kg, data adjusted for BW on day 65/66, mean ± SEM): 21.6 ± 0.3
- Brown adipose tissue weight [3, 9]: 0.697 ± 0.050
- Epididymal fat pads weight [3, 9]: 13.0 ± 0.7
- Gastrocnemius weight [3, 9]: 3.37 ± 0.09
- Liver weight change compared to HFD Vehicle ([3]; 5 mg/kg, data corrected for the terminal BW, p<0.01): +10.8%
- Liver glycogen concentration compared to HFD Vehicle (in words) [4]: No effect
- Liver glycogen content compared to HFD Vehicle (in words) [4]: No effect
- Fat ([5]; 5 mg/kg): 16.8 ± 1.3^ %
- Final carcass weight ([5]; 5 mg/kg): 564.5 ± 9.4 g
- Protein ([5]; 5 mg/kg): 20.6 ± 0.4%
- Water ([5]; 5 mg/kg): 58.9 ± 1.0^ %

Structure (SMILES): CCOc1nc2cc(Cl)c(OC)cc2n1CCCNC(C)=O [Compound of formula II, N-[3-(5-Chloro-2-ethoxy-6-methoxy-benzoimidazol-1-yl)-propyl]-acetamide]
- HOMA-IR compared to HFD Vehicle (in words) ([2]; 10 and 30 mg/kg, day 51): did not alter
- Plasma glucose compared to HFD Vehicle (in words) ([2]; 10 and 30 mg/kg, day 51): did not alter
- Plasma insulin compared to HFD Vehicle (in words) ([2]; 10 and 30 mg/kg, day 51): did not alter
- Fat ([5]; 10 mg/kg): 20.8 ± 2.3 %
- Final carcass weight ([5]; 10 mg/kg): 587.6 ± 6.3 g
- Protein ([5]; 10 mg/kg): 19.2 ± 0.6 %
- Water ([5]; 10 mg/kg): 56.0 ± 1.8 %
- Fat ([5]; 30 mg/kg): 17.9 ± 2.3 %
- Final carcass weight ([5]; 30 mg/kg): 593.3 ± 11.4 g
- Protein ([5]; 30 mg/kg): 19.8 ± 0.5%
- Water ([5]; 30 mg/kg): 58.4 ± 1.9^ %
- Body composition parameters (water, protein, fat content, final carcass weight) against HFD Vehicle [5]: No effect
- Daily BW gain ([6]; 10 and 30 mg/kg): no significant effects
- Daily food intake compared with HFD Vehicle ([6]; 10 and 30 mg/kg): did not affect

- Emax (MT1 receptor): 100%
Structure (SMILES): COc1ccc2[nH]cc(CCNC(C)=O)c2c1 [Melatonin, N-acetyl-5-methoxytryptamine]

Structure (SMILES): COc1cc2c(cc1Cl)nc(OC)n2CCNC(C)=O [Compound of formula I, N-[2-(5-Chloro-2,6-dimethoxy-benzoimidazol-1-yl)-ethyl]-acetamide]
- Steatosis score change compared to the HFD group ([1]; 30 mg/kg p.o., p<0.05): −57%
- Total NAS value versus HFD Vehicle ([1]; 30 mg/kg, p=0.126): trend toward significance
- Lobular inflammation score ([1]; 30 mg/kg, no longer significantly different from the Chow Vehicle control): reduced
- Liver weight ([3]; 10 mg/kg, data adjusted for BW on day 1, mean ± SEM): 17.7 ± 0.8
- Brown adipose tissue weight [3, 10]: 0.700 ± 0.091
- Epididymal fat pads weight [3, 10]: 13.1 ± 1.5
- Gastrocnemius weight [3, 10]: 3.30 ± 0.14
- Brown adipose tissue weight [3, 11]: 0.719 ± 0.084
- Epididymal fat pads weight [3, 11]: 13.9 ± 1.1
- Gastrocnemius weight [3, 11]: 3.32 ± 0.15
- Liver weight [3, 11]: 18.5 ± 0.5
- Liver weight ([3]; 30 mg/kg, data adjusted for BW on day 1, mean ± SEM): 18.6 ± 0.9
- Brown adipose tissue weight [3, 12]: 0.801 ± 0.066
- Epididymal fat pads weight [3, 12]: 13.9 ± 1.0
- Gastrocnemius weight [3, 12]: 3.35 ± 0.10
- Brown adipose tissue weight [3, 13]: 0.808 ± 0.062
- Epididymal fat pads weight [3, 13]: 14.2 ± 1.2
- Gastrocnemius weight [3, 13]: 3.36 ± 0.10
- Liver weight [3, 13]: 18.9 ± 0.5
- Liver weight compared to HFD Vehicle (in words) ([3]; both groups (10 and 30 mg/kg), corrected by the initial BW, p=0.12): trend toward liver weight reduction
- Fat ([5]; 10 mg/kg): 20.5 ± 1.5 %
- Final carcass weight ([5]; 10 mg/kg): 561.7 ± 13.0^ g
- Protein ([5]; 10 mg/kg): 19.7 ± 0.4%
- Water ([5]; 10 mg/kg): 56.1 ± 1.2 %
- Fat ([5]; 30 mg/kg): 20.0 ± 1.7 %
- Final carcass weight ([5]; 30 mg/kg): 584.0 ± 13.6^ g
- Protein ([5]; 30 mg/kg): 19.6 ± 0.5 %
- Water ([5]; 30 mg/kg): 56.5 ± 1.4 %
- Body composition parameters (water, protein, fat content, final carcass weight) against HFD Vehicle [5]: No effect
- Body weight (BW) compared with HFD Vehicle ([6]; 10 and 30 mg/kg p.o., days 13 to 32, p<0.05): significantly reduced body weight (BW)
- BW gain from day 1 to 57 compared with HFD Vehicle ([6]; 10 and 30 mg/kg p.o., p=0.098): trend towards reduced BW gain
- Daily food intake compared with HFD Vehicle ([6]; 10 and 30 mg/kg): did not affect

From patent US20230128304A1, “BENZIMIDAZOLE COMPOUND FOR THE TREATMENT OF METABOLIC DISORDERS” (ACHÉ LABORATÓRIOS FARMACÊUTICOS S.A., priority 2020, published 2023)
